Columns and labels:
Assay type in all cases: in vivo
[1] = test system: Spodoptera littoralis (Egyptian Cotton Leaf Worm); assay: Example B7: Spodoptera littoralis (Egyptian cotton leaf worm), sprayed cotton leaf discs, L1 larvae; conditions: foliar, 72 h, application rate of 200 ppm, 3 days after infestation, in comparison to untreated samples
Summary of the method: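 Cotton leaf discs on agar were sprayed with aqueous test solutions made from 10′000 ppm DMSO stocks, dried, and infested with five L1 larvae. Mortality, anti-feeding and growth inhibition were scored against untreated samples 3 days after infestation; control means any category exceeds the untreated sample.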

[2] = test system: Diabrotica balteata (Corn Root Worm); assay: Example B1: Diabrotica balteata (corn root worm), sprayed maize sprouts on agar, L2 larvae; conditions: 96 h, application rate of 200 ppm, 4 days after infestation, in comparison to untreated samples, read-out: effect in at least one of the two categories (mortality or growth inhibition)
Description: Example B1: Diabrotica balteata (Corn Root Worm
Maize sprouts placed onto an agar layer in 24-well microtiter plates were treated with aqueous test solutions prepared from 10′000 ppm DMSO stock solutions by spraying. After drying, the plates were infested with L2 larvae (6 to 10 per well). The samples were assessed for mortality and growth inhibition in comparison to untreated samples 4 days after infestation.

[3] = test system: Euschistus heros (Neotropical Brown Stink Bug); assay: Example B2: Euschistus heros (neotropical brown stink bug), sprayed soybean leaves, N2 nymphs; conditions: 120 h, application rate of 200 ppm, 5 days after infestation, in comparison to untreated samples, read-out: effect in at least one of the two categories (mortality or growth inhibition)
Description: Example B2: Euschistus heros (Neotropical Brown Stink Bug
Soybean leaves on agar in 24-well microtiter plates were sprayed with aqueous test solutions prepared from 10′000 ppm DMSO stock solutions. After drying the leaves were infested with N2 nymphs. The samples were assessed for mortality and growth inhibition in comparison to untreated samples 5 days after infestation.

[4] = test system: Plutella xylostella (Diamond Back Moth); assay: Example B4: Plutella xylostella (diamond back moth), treated artificial diet, eggs; conditions: 192 h, application rate of 200 ppm, 8 days after infestation, in comparison to untreated samples, read-out: effect in at least one of the two categories (mortality or growth inhibition)
Description: Example B4: Plutella xylostella (Diamond Back Moth
24-well microtiter plates with artificial diet were treated with aqueous test solutions prepared from 10′000 ppm DMSO stock solutions by pipetting. After drying, Plutella eggs were pipetted through a plastic stencil onto a gel blotting paper and the plate was closed with it. The samples were assessed for mortality and growth inhibition in comparison to untreated samples 8 days after infestation.

[5] = test system: Bemisia tabaci (Cotton White Fly); assay: Example B6: Bemisia tabaci (cotton white fly), feeding/contact activity, sprayed cotton leaf discs; conditions: foliar, 144 h, application rate of 200 ppm, adult white flies, 6 days after incubation
Description: Example B6: Bemisia tabaci (Cotton White Fly). Feeding/Contact Activity
Cotton leaf discs were placed on agar in 24-well microtiter plates and sprayed with aqueous test solutions prepared from 10′000 ppm DMSO stock solutions. After drying the leaf discs were infested with adult white flies. The samples were checked for mortality 6 days after incubation.

[6] = test system: Frankliniella occidentalis (Western Flower Thrips); assay: Example B3: Frankliniella occidentalis (western flower thrips), sprayed sunflower leaf discs; conditions: foliar, 168 h, application rate of 200 ppm, population of mixed ages, 7 days after infestation
Description: Example B3: Frankliniella occidentalis (Western Flower Thrips
Sunflower leaf discs were placed on agar in 24-well microtiter plates and sprayed with aqueous test solutions prepared from […] stock solutions. After drying the leaf discs were infested with a Frankliniella population of mixed ages. The samples were assessed for mortality 7 days after infestation.

[7] = test system: Myzus persicae (Green Peach Aphid); assay: Example B8: Myzus persicae (green peach aphid), systemic activity, pea seedling roots in test solution; conditions: 144 h, test rate of 24 ppm, aphid population of mixed ages, 6 days after placing seedlings into test solutions
Description: Example B8: Myzus persicae (Green Peach Aphid). Systemic Activity
Roots of pea seedlings infested with an aphid population of mixed ages were placed directly into aqueous test solutions prepared from 10′000 DMSO stock solutions. The samples were assessed for mortality 6 days after placing seedlings into test solutions.

[8] = test system: Myzus persicae (Green Peach Aphid); assay: Example B5: Myzus persicae (green peach aphid), feeding/contact activity, sprayed sunflower leaf discs; conditions: foliar, 144 h, application rate of 200 ppm, aphid population of mixed ages, 6 days after infestation
Description: Example B5: Myzus persicae (Green Peach Aphid). Feeding/Contact Activity
Sunflower leaf discs were placed onto agar in a 24-well microtiter plate and sprayed with aqueous test solutions prepared from 10′000 ppm DMSO stock solutions. After drying, the leaf discs were infested with an aphid population of mixed ages. The samples were assessed for mortality 6 days after infestation.

[9] = test system: Chilo suppressalis (Striped Rice Stemborer); assay: Example B9: Chilo suppressalis (striped rice stemborer), treated artificial diet, L2 larvae; conditions: 144 h, application rate of 200 ppm, 6 days after infestation, in comparison to untreated samples, read-out: control (mortality, anti-feeding effect, or growth inhibition)
Description: Example B9: Chilo suppressalis (Striped Rice Stemborer
24-well microtiter plates with artificial diet were treated with aqueous test solutions prepared from 10′000 ppm DMSO stock solutions by pipetting. After drying, the plates were infested with L2 larvae (6-8 per well). The samples were assessed for mortality, anti-feeding effect, and growth inhibition in comparison to untreated samples 6 days after infestation. Control of Chilo suppressalis by a test sample is given when at least one of the categories mortality, anti-feedant effect, and growth inhibition is higher than the untreated sample.

CCS(=O)(=O)c1cc(C2(C#N)CC2)cnc1-c1nc2cc(S(=O)(=NCC(F)(F)F)C(F)(F)F)ccc2n1C (stereo not drawn) [P34, 1-[5-ethylsulfonyl-6-[1-methyl-5-[N-(2,2,2-trifluoroethyl)-S-(trifluoromethyl)sulfonimidoyl]benzimidazol-2-yl]-3-pyridyl]cyclopropanecarbonitrile]
≥ 80%: percent control (mortality, anti-feeding effect or growth inhibition) at 200 ppm [1] | percent effect (mortality or growth inhibition) at 200 ppm [2] | effect (mortality or growth inhibition) at 200 ppm [3] | percent effect (mortality or growth inhibition) at 200 ppm [4] | mortality at 200 ppm [5]

CCS(=O)(=O)c1cc(C2(C#N)CC2)cnc1-c1nc2cc(S(=N)(=O)C(F)(F)F)cnc2n1C (stereo not drawn) [P21, 1-[5-ethylsulfonyl-6-[3-methyl-6-(trifluoromethylsulfonimidoyl)imidazo[4,5-b]pyridin-2-yl]-3-pyridyl]cyclopropanecarbonitrile]
≥ 80%: percent control (mortality, anti-feeding effect or growth inhibition) at 200 ppm [1] | mortality at 200 ppm [6] | percent effect (mortality or growth inhibition) at 200 ppm [2] | mortality at 24 ppm [7] | effect (mortality or growth inhibition) at 200 ppm [3] | percent effect (mortality or growth inhibition) at 200 ppm [4] | mortality at 200 ppm [8]

CCN=S(=O)(c1cnc2c(c1)nc(-c1ncc(C3(C#N)CC3)cc1S(=O)(=O)CC)n2C)C(F)(F)F (stereo not drawn) [P20, 1-[5-ethylsulfonyl-6-[6-[N-ethyl-S-(trifluoromethyl)sulfonimidoyl]-3-methyl-imidazo[4,5-b]pyridin-2-yl]-3-pyridyl]cyclopropanecarbonitrile]
≥ 80%: percent control (mortality, anti-feeding effect or growth inhibition) at 200 ppm [1] | mortality at 200 ppm [6] | percent effect (mortality or growth inhibition) at 200 ppm [2] | mortality at 24 ppm [7] | effect (mortality or growth inhibition) at 200 ppm [3] | percent effect (mortality or growth inhibition) at 200 ppm [4] | mortality at 200 ppm [8]

CCS(=O)(=O)c1cc(C2(C#N)CC2)cnc1-c1nc2cc(S(=O)(=NCC(F)(F)F)C(F)(F)F)cnc2n1C (stereo not drawn) [P57, 1-[5-ethylsulfonyl-6-[3-methyl-6-[N-(2,2,2-trifluoroethyl)-S-(trifluoromethyl)sulfonimidoyl]imidazo[4,5-b]pyridin-2-yl]-3-pyridyl]cyclopropanecarbonitrile]
≥ 80%: percent control (mortality, anti-feeding effect or growth inhibition) at 200 ppm [1] | percent control (mortality, anti-feedant effect or growth inhibition) at 200 ppm [9] | mortality at 200 ppm [6] | percent effect (mortality or growth inhibition) at 200 ppm [2] | percent effect (mortality or growth inhibition) at 200 ppm [4] | mortality at 200 ppm [8] | mortality at 200 ppm [5]

CCN=S(=O)(c1ccc2c(c1)nc(-c1ncc(C3(C#N)CC3)cc1S(=O)(=O)CC)n2C)C(F)(F)F (stereo not drawn) [P32, 1-[5-ethylsulfonyl-6-[5-[N-ethyl-S-(trifluoromethyl)sulfonimidoyl]-1-methyl-benzimidazol-2-yl]-3-pyridyl]cyclopropanecarbonitrile]
≥ 80%: percent control (mortality, anti-feeding effect or growth inhibition) at 200 ppm [1] | percent effect (mortality or growth inhibition) at 200 ppm [2] | mortality at 24 ppm [7] | effect (mortality or growth inhibition) at 200 ppm [3] | percent effect (mortality or growth inhibition) at 200 ppm [4]

CCS(=O)(=O)c1cc(C2(C#N)CC2)cnc1-c1nc2cc(S(=N)(=O)C(F)(F)F)ccc2n1C (stereo not drawn) [P33, 1-[5-ethylsulfonyl-6-[1-methyl-5-(trifluoromethylsulfonimidoyl)benzimidazol-2-yl]-3-pyridyl]cyclopropanecarbonitrile]
≥ 80%: percent control (mortality, anti-feeding effect or growth inhibition) at 200 ppm [1] | percent effect (mortality or growth inhibition) at 200 ppm [2] | effect (mortality or growth inhibition) at 200 ppm [3] | percent effect (mortality or growth inhibition) at 200 ppm [4] | mortality at 200 ppm [5]

CCS(=O)(=O)c1cc(C2(C#N)CC2)cnc1-c1nc2cc(S(=N)(=O)C(F)(F)F)ccc2o1 (stereo not drawn) [P7, 1-[5-ethylsulfonyl-6-[5-(trifluoromethylsulfonimidoyl)-1,3-benzoxazol-2-yl]-3-pyridyl]cyclopropanecarbonitrile]
≥ 80%: percent control (mortality, anti-feeding effect or growth inhibition) at 200 ppm [1] | percent effect (mortality or growth inhibition) at 200 ppm [2] | effect (mortality or growth inhibition) at 200 ppm [3] | percent effect (mortality or growth inhibition) at 200 ppm [4] | mortality at 200 ppm [5]

CCS(=O)(=O)c1cc(C2(C#N)CC2)cnc1-c1nc2cc(S(=O)(=NC3CC3)C(F)(F)F)cnc2n1C (stereo not drawn) [P58, 1-[6-[6-[N-cyclopropyl-S-(trifluoromethyl)sulfonimidoyl]-3-methyl-imidazo[4,5-b]pyridin-2-yl]-5-ethylsulfonyl-3-pyridyl]cyclopropanecarbonitrile]
≥ 80%: percent control (mortality, anti-feeding effect or growth inhibition) at 200 ppm [1] | percent control (mortality, anti-feedant effect or growth inhibition) at 200 ppm [9] | percent effect (mortality or growth inhibition) at 200 ppm [2] | effect (mortality or growth inhibition) at 200 ppm [3] | percent effect (mortality or growth inhibition) at 200 ppm [4] | mortality at 200 ppm [5]

CCS(=O)(=O)c1cccnc1-c1nc2cc(S(=O)(=NC(C)=O)C(F)(F)F)ccc2o1 (stereo not drawn) [P17, N-[[2-(3-ethylsulfonyl-2-pyridyl)-1,3-benzoxazol-5-yl]-oxo-(trifluoromethyl)-λ^6-sulfanylidene]acetamide]
≥ 80%: percent control (mortality, anti-feeding effect or growth inhibition) at 200 ppm [1] | percent effect (mortality or growth inhibition) at 200 ppm [2] | effect (mortality or growth inhibition) at 200 ppm [3] | percent effect (mortality or growth inhibition) at 200 ppm [4] | mortality at 200 ppm [8] | mortality at 200 ppm [5]

CCS(=O)(=O)c1cc(C2CC2)cnc1-c1nc2cc(S(=N)(=O)C(F)(F)F)ccc2o1 (stereo not drawn) [P12, [2-(5-cyclopropyl-3-ethylsulfonyl-2-pyridyl)-1,3-benzoxazol-5-yl]-imino-oxo-(trifluoromethyl)-λ^6-sulfane]
≥ 80%: percent control (mortality, anti-feeding effect or growth inhibition) at 200 ppm [1] | mortality at 200 ppm [6] | percent effect (mortality or growth inhibition) at 200 ppm [2] | effect (mortality or growth inhibition) at 200 ppm [3] | percent effect (mortality or growth inhibition) at 200 ppm [4] | mortality at 200 ppm [8]

CCS(=O)(=O)c1cc(N=S(C)(C)=O)cnc1-c1nc2cc(S(=N)(=O)C(F)(F)F)ccc2o1 (stereo not drawn) [P1, [2-[5-[[dimethyl(oxo)-λ^6-sulfanylidene]amino]-3-ethylsulfonyl-2-pyridyl]-1,3-benzoxazol-5-yl]-imino-oxo-(trifluoromethyl)-λ^6-sulfane]
≥ 80%: percent control (mortality, anti-feeding effect or growth inhibition) at 200 ppm [1] | mortality at 200 ppm [6] | percent effect (mortality or growth inhibition) at 200 ppm [2] | effect (mortality or growth inhibition) at 200 ppm [3] | percent effect (mortality or growth inhibition) at 200 ppm [4] | mortality at 200 ppm [8] | mortality at 200 ppm [5]
